From patent US3933805A, “S(IV)-benzo-1,2,4-thiadiazine compounds and process for their preparation” (Biersdorf, Akteingesellschaft, priority 1973, dated 1976) come the findings set out here.

A word on the ED50: it is the midpoint of the dose-response relation.

In experiment [1] the test system is guinea pig small intestine. In words: Spasmolytic effect on guinea pig small intestine in vitro against Histamine. Type of experiment: cell-based. To be noted: Cavia porcellus, Histamine 0.1 γ/ml, read-out: ED50, spasmolytic effect against Histamine. From the text:
(§1) Spasmolytic effect on guinea pig small intestine (1)
(§2) (1) R. Magnus, Pflugers Arch. ges. Physiol. 102, 123 (1904)

Experiment [2] has as its system guinea pig small intestine. In words: Spasmolytic effect on guinea pig small intestine in vitro against Barium chloride. The settings on record: Cavia porcellus, Barium chloride 200 γ/ml, read-out: ED50, spasmolytic effect against Barium chloride. Type of experiment: cell-based.
Text: as §1, §2

Experiment [3] has as its system guinea pig small intestine. In words: Spasmolytic effect on guinea pig small intestine in vitro against Acetylcholine. To be noted: Cavia porcellus, Acetylcholine 0.1 γ/ml, read-out: ED50, spasmolytic effect against Acetylcholine. The format is cell-based.
Text: as §1, §2

For experiment [4], the system named is pentobarbital sleep. In words: Prolongation of pentobarbital sleep. The format is in vivo. To be noted: Mus musculus, po, mice, p.o., read-out: ED50, increase in sleeping (prolongation of pentobarbital sleep). An excerpt: (§3) Central depressing effects in mice (ED50 in mg/kg p.o.)
(§4) Example spontaneous Increase in net^(3)
(2) Prolongation of pentobarbital sleep, R.A. Turner, Screening Methods i
Pharmacology, N.Y. 1965, p. 90.

The subject of experiment [5] is Minimum Electroshock Threshold. In words: Minimum Electroshock Threshold (increase in net). Type of experiment: in vivo. To be noted: Mus musculus, po; mice.
Text: as §3, §4
(3) Minimum Electroshock Threshold, test arrangement according to Brown,
Schiffmann, Swinyard and Goodman; J.Pharmacol. Exptl. Ther. 107, 273

Experiment [6] deals with spontaneous mobility. In words: Decrease of spontaneous mobility. The format is in vivo. To be noted: Mus musculus, po; mice.
Text: as §3, §4
(1) Method described in R.A. Turner, Screening Methods in Pharmacology, […]

≈ marks a conversion by molar mass, not a printed value.

As for `CCCN(CCC)CC1=Nc2ccc(Cl)cc2S(=O)(c2cccc(C)c2)=N1` (stereo not drawn) [Example 23], the IC50 in experiment [1] is 0.08 µg/mL (≈ 0.198 µM); in experiment [2] it was 0.9 µg/mL (≈ 2.23 µM); in experiment [3], 1.1 µg/mL (≈ 2.72 µM).

With `O=S1(c2ccccc2)=NC(CNCCO)=Nc2ccccc21` (stereo not drawn) [Example 19], the ED50 in experiment [4] was 2 mg/kg; in experiment [5], more than 500 mg/kg; in experiment [6] it was more than 250 mg/kg.

With `CCCN(CCC)CC1=Nc2ccccc2S(=O)(c2ccc(N)cc2)=N1` (stereo not drawn) [Example 2, 3-Di-(n-propyl)-aminomethyl-1-(4'-aminophenyl)-benzo-1,2,4-thiadiazine-1-oxide], the ED50 in experiment [4] was 8 mg/kg; in experiment [6], more than 250 mg/kg.

For the compound `CCCN(CCC)CC1=Nc2ccccc2S(=O)(c2ccccc2)=N1` (stereo not drawn) [Example 18], the values for the IC50 in experiment [2] and in experiment [3] were 1.2 µg/mL (≈ 3.38 µM) and 4 µg/mL (≈ 11.3 µM), respectively. Besides, the values for the median effective dose (ED50) in experiment [4], in experiment [5] and in experiment [6] were 3.1 mg/kg, 134 mg/kg and 186 mg/kg, respectively.

Consider `CN(C)CC1=Nc2ccc(Cl)cc2S(=O)(c2ccccc2)=N1` (stereo not drawn) [Example 8], for which the results for the ED50 in experiment [4], in experiment [5] and in experiment [6] were 16 mg/kg, 46 mg/kg and 96 mg/kg, respectively.

Consider `COCCN(C)CC1=Nc2ccc(Cl)cc2S(=O)(c2ccccc2)=N1` (stereo not drawn) [Example 14], for which the results for the ED50 in experiment [4], in experiment [5] and in experiment [6] were 28 mg/kg, 46 mg/kg and more than 250 mg/kg, respectively.

For the compound `O=S1(c2ccc(Cl)cc2)=NC(CNCCO)=Nc2ccccc21` (stereo not drawn) [Example 21], the ED50 turned out to be 9 mg/kg in experiment [4] and 46 mg/kg in experiment [6].

Take `CCNCC1=Nc2ccc(Cl)cc2S(=O)(c2ccccc2)=N1` (stereo not drawn) [Example 13]: the ED50 in experiment [4] was 25 mg/kg; in experiment [5], 42 mg/kg; in experiment [6], 240 mg/kg.

On to `O=S1(c2ccccc2)=NC(CN2CCOCC2)=Nc2ccc(Cl)cc21` (stereo not drawn) [Example 5], for which the ED50 in experiment [4] was 46 mg/kg; in experiment [5], 92 mg/kg; in experiment [6], more than 250 mg/kg.

For the compound `O=S1(c2ccccc2)=NC(CNCCO)=Nc2ccc(Cl)cc21` (stereo not drawn) [Example 7], the ED50 in experiment [4] was 15 mg/kg; in experiment [5] it was 126 mg/kg; in experiment [6], 23 mg/kg.

Consider `CCCN(CCC)CC1=Nc2cc(C)ccc2S(=O)(c2ccccc2)=N1` (stereo not drawn) [Example 15], for which the IC50 in experiment [1] was 0.96 µg/mL (≈ 2.6 µM); in experiment [2] it was 2.2 µg/mL (≈ 5.95 µM); in experiment [3], 2.7 µg/mL (≈ 7.31 µM). In addition, the ED50 in experiment [4] was 8.5 mg/kg; in experiment [5] it was more than 500 mg/kg; in experiment [6] it was 76 mg/kg.

`CCN(CC)CC1=Nc2ccc(Cl)cc2S(=O)(c2ccccc2)=N1` (stereo not drawn) [Example 4]: the ED50 in experiment [4] was 46 mg/kg; in experiment [5], 28 mg/kg; in experiment [6] it was 78 mg/kg.

Consider `COCCNCC1=Nc2ccc(Cl)cc2S(=O)(c2ccccc2)=N1` (stereo not drawn) [Example 9], for which the ED50 in experiment [4] is 58 mg/kg; in experiment [5], 32 mg/kg; in experiment [6], more than 250 mg/kg.

Turning to `O=S1(c2ccccc2)=NC(CN2CCCCC2)=Nc2ccc(Cl)cc21` (stereo not drawn) [Example 3], the values for the IC50 in experiment [2] and in experiment [3] were 1.7 µg/mL (≈ 4.55 µM) and 0.9 µg/mL (≈ 2.41 µM), respectively. The ED50 in experiment [4] worked out at 34 mg/kg; in experiment [5], 34 mg/kg; in experiment [6] it was 84 mg/kg.

Take `CCCN(CCC)CC1=Nc2ccc(Cl)cc2S(=O)(c2ccc(Cl)cc2)=N1` (stereo not drawn) [Example 22]: the values for the IC50 in experiment [2] and in experiment [3] were 0.72 µg/mL (≈ 1.7 µM) and 2.2 µg/mL (≈ 5.18 µM), respectively. Moreover, the ED50 came to 16 mg/kg in experiment [4] and 28 mg/kg in experiment [6].

For the compound `CCCN(CCC)CC1=Nc2cccc(Cl)c2S(=O)(c2ccc(Cl)cc2)=N1` (stereo not drawn) [Example 24], the IC50 in experiment [1] was found to be 0.04 µg/mL (≈ 0.0943 µM); in experiment [2], 0.72 µg/mL (≈ 1.7 µM); in experiment [3] it was 2.2 µg/mL (≈ 5.18 µM). The ED50 in experiment [4] is 20 mg/kg; in experiment [5], 115 mg/kg; in experiment [6], 16 mg/kg.

On to `CCCN(CCC)CC1=Nc2ccc(C)cc2S(=O)(c2ccc(Cl)cc2)=N1` (stereo not drawn) [Example 25], for which the IC50 in experiment [2] and in experiment [3] was 0.69 µg/mL (≈ 1.71 µM) throughout. Also, the ED50 was more than 250 mg/kg in experiment [4], 21 mg/kg in experiment [5] and 31 mg/kg in experiment [6].

Turning to `CCCN(CCC)CC1=Nc2ccccc2S(=O)(c2ccc(Cl)cc2)=N1` (stereo not drawn) [Example 20], the ED50 is 2 mg/kg in experiment [4], more than 250 mg/kg in experiment [5] and 31 mg/kg in experiment [6]. For the same compound, in experiment [3], the IC50 was 2.6 µg/mL (≈ 6.67 µM).

Turning to `CCCN(CCC)CC1=Nc2ccc(Cl)cc2S(=O)(c2ccccc2)=N1` (stereo not drawn) [Example 1, 7-Chloro-3-di-(n-propyl)aminomethyl-1-phenyl-benzo-1,2,4-thiadiazine-1 oxide], the ED50 in experiment [4] was 22 mg/kg; in experiment [5], 38 mg/kg; in experiment [6], 98 mg/kg.

As for `O=S1(c2ccccc2)=NC(CN2CCCC2)=Nc2ccc(Cl)cc21` (stereo not drawn) [Example 6], the ED50 in experiment [4] turned out to be 38 mg/kg; in experiment [5], 68 mg/kg; in experiment [6] it was 70 mg/kg.
